Assay results taken from patent publication US20260184708A1, “PYRIDAZINONES AND METHODS OF USE THEREOF” (GFB (ABC), LLC, priority 2017, published 2026).
Where two headings read alike, the source gives them in different places.

Biological target: T1, TRPC4 (Homo sapiens, UniProt Q9UBN4)
T1 construct: expressed in transfected cells; host or cells: HEK-TREx (HekTrex-293), cell line ICLN-1694, tetracycline-induced
T1 sequence (Q9UBN4 1-982 isoform Q9UBN4-5): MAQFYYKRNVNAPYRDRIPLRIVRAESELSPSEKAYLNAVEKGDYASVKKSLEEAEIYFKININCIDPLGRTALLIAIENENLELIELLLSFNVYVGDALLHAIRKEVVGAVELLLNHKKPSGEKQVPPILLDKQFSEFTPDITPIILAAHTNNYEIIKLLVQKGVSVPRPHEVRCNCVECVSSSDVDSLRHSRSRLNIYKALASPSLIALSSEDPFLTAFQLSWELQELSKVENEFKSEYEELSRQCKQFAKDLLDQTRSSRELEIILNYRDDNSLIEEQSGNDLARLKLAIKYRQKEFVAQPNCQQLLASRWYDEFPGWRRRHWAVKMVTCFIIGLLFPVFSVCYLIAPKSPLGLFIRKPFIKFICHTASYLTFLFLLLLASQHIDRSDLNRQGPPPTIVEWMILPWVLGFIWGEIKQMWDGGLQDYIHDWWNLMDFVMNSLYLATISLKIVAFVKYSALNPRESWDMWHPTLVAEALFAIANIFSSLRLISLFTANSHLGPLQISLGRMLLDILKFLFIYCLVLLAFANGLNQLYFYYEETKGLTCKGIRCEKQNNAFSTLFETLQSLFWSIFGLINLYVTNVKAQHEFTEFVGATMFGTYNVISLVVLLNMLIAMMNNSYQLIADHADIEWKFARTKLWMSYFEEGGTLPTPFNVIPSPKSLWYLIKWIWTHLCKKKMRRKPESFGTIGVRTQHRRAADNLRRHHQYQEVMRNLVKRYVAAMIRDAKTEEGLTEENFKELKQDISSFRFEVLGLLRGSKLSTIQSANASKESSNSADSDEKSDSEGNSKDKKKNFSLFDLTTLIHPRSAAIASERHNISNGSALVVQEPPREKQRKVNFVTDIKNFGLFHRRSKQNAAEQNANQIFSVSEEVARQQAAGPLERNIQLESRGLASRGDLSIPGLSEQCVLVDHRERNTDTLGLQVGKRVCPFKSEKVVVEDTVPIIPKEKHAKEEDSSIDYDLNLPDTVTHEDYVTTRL
Assay: TRPC4 FLIPR Assay (HEK-TREx hTRPC4, Englerin A stimulation)
Assay type: cell-based
Conditions: HEK-TREx hTRPC4
Method: FLIPR Assay Buffer (Earls Balanced Salt Solution (EBSS)) was prepared as follows:
10-point dose response curves were generated using the Echo-550 acoustic dispenser. Compound source plates were made by serially diluting compound stocks to create 10 mM, 1 mM, and 0.1 mM solutions in DMSO into Echo certified LDV plates. The Echo then serially spotted 100% DMSO stock solutions into source dose response plates to generate a 4-fold dilution scheme. 100% DMSO was added to the spotted dose response plates to bring the final volume to 5 μl. […] of the dose response stock plate was then spotted into pre-incubation and stimulation assay plates. […] of pre-incubation buffer and 100 μl of stimulation buffer was then added to the plates resulting in a final assay test concentration range of 30 μM to 0.0001 μM with a final DMSO concentration of 0.3%.
Experimental Methods: Cells expressing TRPC4 were plated onto 384 well, black pdl-coated microplates and maintained in TRPC4 growth media the day prior to use for experiments. TRPC4 expression was induced by the application of 1 μg/ml tetracycline at the time of plating. […] Cells were incubated at room temperature, protected from light, for 60-90 minutes. After the incubation period, the dye was removed and replaced with 10 μl of EBSS. Cell, pre-incubation and stimulation plates were loaded onto the FLIPR-II and the assay was initiated. The FLIPR measured a 10 second baseline and then added 10 μl of 2× compounds (or controls). Changes in fluorescence were monitored for an additional 5 minutes. After a 5 minute pre-incubation, 20 μl of 2× Englerin A (with 1× compound or controls) was added to the cell plate. The final Engerlin A stimulation concentration in the assay is 100 nM. After the Englerin A addition, changes in fluorescence were monitored for an additional 5 minutes.
Test Agent Effect: Test agent modulation of TRPC4 calcium response was determined as follows. After the Englerin A, fluorescence was monitored for a 5 minute period. The maximum relative fluorescence response (minus the control response of […] of the control inhibitor) was captured and exported from the FLIPR. Test agent effect was calculated as % inhibition using the following formula: % inhibition=((RFU TEST AGENT−Plate Average RFU REF INHIB)/(Plate Average RFU CONTROL−Plate Average RFU REF INHIB))×100

[1] = Table 10, read-out: TRPC4-FLIPR ICSO
[2] = Table 9, read-out: hTRPC4-FLIPR IC50

Row | IC50 [1] | IC50 [2] | Compound
1 | 0.01 to 1000 nM |  | [2H]c1nc2c(n1Cc1ccccc1C(F)(F)F)CCN(c1cn[nH]c(=O)c1Cl)C2
2 | 0.01 to 1000 nM |  | C[C@H](c1ccc(F)cc1C(F)F)n1nc(C(N)=O)c2c1CCN(c1cn[nH]c(=O)c1Cl)C2
3 |  | 0.01 to 1000 nM | C[C@@H](c1ccccc1C(F)(F)F)N1CCN(c2cn[nH]c(=O)c2Cl)CC1=O [drawing 1044]
4 |  | 0.01 to 1000 nM | C[C@H](c1ccc(F)cc1C(F)(F)F)N1C[C@@H](C)N(c2cn[nH]c(=O)c2Cl)CC1=O [drawing 1048]
5 |  | 0.01 to 1000 nM | C[C@@H](c1ccc(F)cc1C(F)(F)F)N1CCN(c2cn[nH]c(=O)c2Cl)CC1=O [drawing 1049]
6 | 0.01 to 1000 nM |  | COCc1ccccc1Cn1cnc2c1CCN(c1cn[nH]c(=O)c1Cl)C2 [drawing 1053]
7 | 1000 to 5000 nM |  | COCc1ncccc1Cn1cnc2c1CCN(c1cn[nH]c(=O)c1Cl)C2 [drawing 1065]
8 | 0.01 to 1000 nM |  | C[C@@H]1Cc2c(nnn2[C@@H](C)c2ccccc2C(F)(F)F)CN1c1cn[nH]c(=O)c1Cl [drawing 1071]
9 | 0.01 to 1000 nM |  | C[C@H](c1ccccc1C(F)(F)F)n1nnc2c1CCN(c1cn[nH]c(=O)c1Cl)[C@H]2C [drawing 1078]
10 | 0.01 to 1000 nM |  | CCS(=O)(=O)c1nc2c(n1Cc1ccccc1C(F)(F)F)CCN(c1cn[nH]c(=O)c1Cl)C2 [drawing 1079]
11 | 0.01 to 1000 nM |  | O=c1[nH]ncc(N2CCc3c(c(=O)[nH]n3Cc3ccccc3C(F)(F)F)C2)c1Cl [drawing 1081]
12 | 0.01 to 1000 nM |  | C[C@@H]1Cc2c(nnn2[C@@H](C)c2ccc(F)cc2C(F)(F)F)CN1c1cn[nH]c(=O)c1Cl [drawing 1085]
13 | 0.01 to 1000 nM |  | C[C@H](c1ccc(F)cc1C(F)(F)F)n1nnc2c1CCN(c1cn[nH]c(=O)c1Cl)[C@H]2C [drawing 1092]
14 | 0.01 to 1000 nM |  | C[C@H](c1ccccc1C(F)F)n1nnc2c1CCN(c1cn[nH]c(=O)c1Cl)C2 [drawing 1100]
15 | 0.01 to 1000 nM |  | C[C@@H](c1ccccc1C(F)F)n1nnc2c1CCN(c1cn[nH]c(=O)c1Cl)C2 [drawing 1106]
16 | 0.01 to 1000 nM |  | C[C@@H](c1ccc(F)cc1C(F)F)n1nnc2c1CCN(c1cn[nH]c(=O)c1Cl)C2 [drawing 1107]
17 | 0.01 to 1000 nM |  | CNC(=O)c1nn([C@H](C)c2ccccc2C(F)F)c2c1CN(c1cn[nH]c(=O)c1Cl)CC2 [drawing 1113]
18 | 0.01 to 1000 nM |  | CC(c1ccc(F)cc1C(F)F)n1nc(C(N)=O)c2c1CCN(c1cn[nH]c(=O)c1Cl)C2 (centres unmarked) [drawing 1114]

Row | IC50 [1] | IC50 [2] | Compound
19 | 0.01 to 1000 nM |  | CNC(=O)c1nn(Cc2ccc(F)cc2C(F)F)c2c1CN(c1cn[nH]c(=O)c1Cl)CC2 [drawing 1117]
20 | 0.01 to 1000 nM |  | C[C@@H]1Cc2c(c(C(N)=O)nn2Cc2ccccc2C(F)(F)F)CN1c1cn[nH]c(=O)c1Cl [drawing 1118]
21 | 0.01 to 1000 nM |  | COC[C@H](c1ccccc1C(F)(F)F)n1cnc2c1CCN(c1cn[nH]c(=O)c1Cl)C2 [drawing 1120]
22 | 0.01 to 1000 nM |  | C[C@H](c1ccccc1C(F)(F)F)n1nc(C(N)=O)c2c1CCN(c1cn[nH]c(=O)c1Cl)C2 [drawing 1123]
23 | 0.01 to 1000 nM |  | C[C@@H](c1cccnc1CC(F)F)n1nnc2c1CCN(c1cn[nH]c(=O)c1Cl)C2 [drawing 1125]
24 | 0.01 to 1000 nM |  | O=c1[nH]ncc(N2CCc3c(nnn3Cc3ccc(F)cc3CC(F)(F)F)C2)c1Cl [drawing 1131]
25 | 0.01 to 1000 nM |  | C[C@H](c1ccccc1Cl)n1nnc2c1CCN(c1cn[nH]c(=O)c1Cl)C2 [drawing 1133]
26 | 0.01 to 1000 nM |  | CNC(=O)c1nc2c(n1Cc1ccccc1C(F)(F)F)CCN(c1cn[nH]c(=O)c1Cl)C2 [drawing 1134]
27 | 0.01 to 1000 nM |  | NC(=O)c1nc2c(n1Cc1ccccc1C(F)(F)F)CCN(c1cn[nH]c(=O)c1Cl)C2 [drawing 1135]
28 | 0.01 to 1000 nM |  | O=c1[nH]ncc(N2CCc3c(ncn3Cc3ccc(F)cc3Cl)C2)c1Cl [drawing 1136]
29 | 0.01 to 1000 nM |  | O=c1[nH]ncc(N2CCc3c(ncn3Cc3ccccc3Cl)C2)c1Cl [drawing 1139]
30 | 0.01 to 1000 nM |  | C[C@@H](c1ccccc1Cl)n1nnc2c1CCN(c1cn[nH]c(=O)c1Cl)C2 [drawing 1140]
31 | 0.01 to 1000 nM |  | CS(=O)(=O)c1nc2c(n1Cc1ccccc1C(F)(F)F)CCN(c1cn[nH]c(=O)c1Cl)C2 [drawing 1142]
32 | 0.01 to 1000 nM |  | CN(c1ncc2c(n1)CN(c1cn[nH]c(=O)c1Cl)C2)c1ccc(F)cc1Cl [drawing 1144]
33 | 0.01 to 1000 nM |  | CCN(c1ncc2c(n1)CN(c1cn[nH]c(=O)c1Cl)C2)c1ccccc1Cl [drawing 1148]
34 | 0.01 to 1000 nM |  | O=c1[nH]ncc(N2CCc3c(Cc4ccc(F)cc4C(F)(F)F)n[nH]c3C2)c1Cl [drawing 1153]
35 | 0.01 to 1000 nM |  | CCc1ncccc1N(C)c1ncc2c(n1)CN(c1cn[nH]c(=O)c1Cl)C2 [drawing 1154]
